Here are results for 21 molecules from PubChem BioAssay AID330 (DTP/NCI, 2004).

In this assay the test system is P388 leukemia ip, CD2F1 mice, survival T/C. Description: NCI In Vivo Anticancer Drug Screen. Data for tumor model P388 Leukemia (intraperitoneal) in CD2F1 (CDF1) mice. The following applies: endpoint: median survival time, higher = longer survival. The method in brief:
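Mice carrying the transplanted tumor received test compound or vehicle. Survival was recorded in each group, and the value is the treated-group measurement divided by that of the vehicle-treated control group.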

Setting [1] is: dose: 50.0 mg/kg/injection, schedule: Q01DX005 (ip), vehicle: saline with Tween-80.
Setting [2] is: dose: 100.0 mg/kg/injection, schedule: Q01DX005 (ip), vehicle: saline with Tween-80.
Setting [3] is: dose: 200.0 mg/kg/injection, schedule: Q01DX005 (ip), vehicle: saline with Tween-80.
The mark [4] stands for this setting: dose: 100.0 mg/kg/injection, schedule: Q04DX002 (ip), vehicle: saline with Tween-80.
Setting [5] is: dose: 200.0 mg/kg/injection, schedule: Q04DX002 (ip), vehicle: saline with Tween-80.
Setting [6] is: dose: 50.0 mg/kg/injection, schedule: Q01DX009 (ip), vehicle: saline.
Where [7] appears, read: dose: 100.0 mg/kg/injection, schedule: Q01DX009 (ip), vehicle: saline.
Where [8] appears, read: dose: 100.0 mg/kg/injection, schedule: Q04DX002 (ip), vehicle: Klucel (hydroxypropylcellulose) (HPC).
Where [9] appears, read: dose: 200.0 mg/kg/injection, schedule: Q04DX002 (ip), vehicle: Klucel (hydroxypropylcellulose) (HPC).
The mark [10] stands for this setting: dose: 60.0 mg/kg/injection, schedule: Q01DX005 (ip), vehicle: Klucel (hydroxypropylcellulose) (HPC).
[11] abbreviates: dose: 120.0 mg/kg/injection, schedule: Q01DX005 (ip), vehicle: Klucel (hydroxypropylcellulose) (HPC).

Each structure is given as a SMILES string. “And” between values parts separate entries of the source, which are not always exact repeats. Equal values may be shown once. Toxic doses and inconclusive results are not listed.

Take `O=C1CSC(c2ccoc2)N1N1C(=O)CSC1c1ccoc1` (stereo unspecified): the T/C under setting [1] was 90 % of control, the T/C under setting [2] was 87 % of control and the T/C under setting [3] is 90 % of control.
Turning to `CC(=O)Nc1c(C)ncn(-c2ccccc2)c1=O`, the T/C by setting is: (dose: 60.0 mg/kg/injection, schedule: Q01DX005 (ip), vehicle: saline) 95 % of control; (dose: 120.0 mg/kg/injection, schedule: Q01DX005 (ip), vehicle: saline) 100 % of control; (dose: 240.0 mg/kg/injection, schedule: Q01DX005 (ip), vehicle: saline) 101 % of control.
In the case of `CCCCCCC(CCCCCC)=NO`, the T/C was 95 % of control under setting [1], 113 % of control under setting [2] and 104 % of control under setting [3].
As for `C[N+](C)(C)/N=C(\[O-])Nc1ccccc1`, the T/C runs as follows: (dose: 50.0 mg/kg/injection, schedule: Q01DX009 (ip), vehicle: saline with Tween-80) 100 % of control; (dose: 100.0 mg/kg/injection, schedule: Q01DX009 (ip), vehicle: saline with Tween-80) 104 % of control; (dose: 200.0 mg/kg/injection, schedule: Q01DX009 (ip), vehicle: saline with Tween-80) 89 % of control.
For `CC(=O)c1ccc([N+](=O)[O-])cc1Cl`, the T/C reads like this: under setting [4], 106 % of control; under setting [5], 106 % of control; (dose: 400.0 mg/kg/injection, schedule: Q04DX002 (ip), vehicle: saline with Tween-80) 103 % of control.
With `C[C@]12CCC(=O)C=C1CC[C@H]1[C@@H]3C[C@@H](O)[C@](O)(C(=O)CO)[C@@]3(C)C[C@H](O)[C@@]12F`, the T/C (dose: 25.0 mg/kg/injection, schedule: Q01DX009 (ip), vehicle: saline) was 109 % of control; the T/C under setting [6] was 109 % of control; the T/C under setting [7] was 109 % of control.
`N#CC(C#N)=C(C#N)C#N`: the T/C is 103 % of control (dose: 100.0 mg/kg/injection, schedule: Q04DX003 (ip), vehicle: saline with Tween-80) and 103 % of control (dose: 200.0 mg/kg/injection, schedule: Q04DX003 (ip), vehicle: saline with Tween-80).
With `C=CCNC(=O)/C(C)=C(\C)c1ccccc1`, the T/C is, setting by setting: (dose: 50.0 mg/kg/injection, schedule: Q04DX002 (ip), vehicle: Klucel (hydroxypropylcellulose) (HPC)) 102 % of control; under setting [8], 102 % of control; under setting [9], 103 % of control.
For the molecule `O=[N+]([O-])c1ccc(SSc2ccc([N+](=O)[O-])s2)s1`, the T/C (dose: 100.0 mg/kg/injection, schedule: Q01DX001 (ip), vehicle: Klucel (hydroxypropylcellulose) (HPC)) is 106 % of control.
For `O=C1SC/C(=N\N=c2/scc(-c3ccc(Br)cc3)n2-c2ccc(Br)cc2)N1Cc1ccccc1`, the T/C was 91 % of control under setting [8]; 92 % of control under setting [9]; 90 % of control (dose: 400.0 mg/kg/injection, schedule: Q04DX002 (ip), vehicle: Klucel (hydroxypropylcellulose) (HPC)).
Take `CCOC(=O)NC1=C(N2CC2)C(=O)C(NC(=O)OCC)=C(N2CC2)C1=O`: the T/C by setting is: (dose: 0.5 mg/kg/injection, schedule: Q01DX005 (iv), vehicle: saline) 110 % of control; (dose: 2.59 mg/kg/injection, schedule: Q04DX002 (ip), vehicle: saline) 160 % of control; (dose: 3.0 mg/kg/injection, schedule: Q01DX005 (ip), vehicle: saline with Tween-80) 216 % of control; (dose: 4.0 mg/kg/injection, schedule: Q01DX005 (ip), vehicle: saline) 200 % of control; (dose: 4.9 mg/kg/injection, schedule: Q01DX005 (ip), vehicle: saline with Tween-80) 211 % of control and 259 % of control; (dose: 8.0 mg/kg/injection, schedule: Q04DX003 (iv), vehicle: saline with Tween-80) 160 % of control. In addition, the T/C is, setting by setting: (dose: 8.1 mg/kg/injection, schedule: Q01DX005 (ip), vehicle: saline with Tween-80) 75 % of control; (dose: 12.0 mg/kg/injection, schedule: Q04DX002 (ip), vehicle: saline) 277 % of control; (dose: 22.5 mg/kg/injection, schedule: Q01DX001 (ip), vehicle: saline with Tween-80) 62 % of control; (dose: 37.5 mg/kg/injection, schedule: Q01DX001 (ip), vehicle: saline with Tween-80) 100 % of control and 58 % of control.
For the molecule `Clc1ccc(COC(Cn2ccnc2)c2ccc(Cl)cc2Cl)c(Cl)c1` (stereo unspecified), the T/C is 107 % of control (dose: 9.37 mg/kg/injection, schedule: Q01DX009 (ip), vehicle: saline with Tween-80); 99 % of control (dose: 18.75 mg/kg/injection, schedule: Q01DX005 (ip), vehicle: saline with Tween-80); 106 % of control (dose: 37.5 mg/kg/injection, schedule: Q01DX005 (ip), vehicle: saline with Tween-80); 104 % of control (dose: 37.5 mg/kg/injection, schedule: Q01DX009 (ip), vehicle: saline with Tween-80); 108 % of control (dose: 75.0 mg/kg/injection, schedule: Q01DX005 (ip), vehicle: saline with Tween-80); 112 % of control (dose: 75.0 mg/kg/injection, schedule: Q01DX009 (ip), vehicle: saline with Tween-80). In addition, the T/C is, setting by setting: (dose: 150.0 mg/kg/injection, schedule: Q01DX005 (ip), vehicle: saline with Tween-80) 110 % of control; (dose: 150.0 mg/kg/injection, schedule: Q01DX009 (ip), vehicle: saline with Tween-80) 107 % of control.
In the case of `COc1cccc2sc(-n3c(C)nc4ccccc4c3=O)nc12`, the T/C runs as follows: under setting [10], 95 % of control; under setting [11], 87 % of control; (dose: 240.0 mg/kg/injection, schedule: Q01DX005 (ip), vehicle: Klucel (hydroxypropylcellulose) (HPC)) 87 % of control.
Consider `[Mn+2].[O-]c1ccccc1/C=N/c1ccccn1.[O-]c1ccccc1/C=N/c1ccccn1.[OH3+].[OH3+]`, for which the T/C (dose: 50.0 mg/kg/injection, schedule: Q04DX002 (ip), vehicle: saline with Tween-80) was 97 % of control; the T/C under setting [4] is 96 % of control; the T/C under setting [5] is 94 % of control.
Turning to `Cc1cc(=NC(C)(C)C)nc2c3ccccc3c(Cl)cn12`, the T/C runs as follows: (dose: 1.56 mg/kg/injection, schedule: Q01DX005 (ip), vehicle: saline with Tween-80) 100 % of control; (dose: 3.13 mg/kg/injection, schedule: Q01DX005 (ip), vehicle: saline with Tween-80) 100 % of control; (dose: 6.25 mg/kg/injection, schedule: Q01DX005 (ip), vehicle: saline with Tween-80) 103 % of control and 98 % of control.
`COC(=O)c1ccc(SCCC(=O)CSc2ccc(C(=O)OC)cc2)cc1`: the T/C (dose: 50.0 mg/kg/injection, schedule: Q01DX009 (ip), vehicle: Klucel (hydroxypropylcellulose) (HPC)) is 98 % of control; the T/C (dose: 100.0 mg/kg/injection, schedule: Q01DX009 (ip), vehicle: Klucel (hydroxypropylcellulose) (HPC)) was 94 % of control; the T/C (dose: 200.0 mg/kg/injection, schedule: Q01DX009 (ip), vehicle: Klucel (hydroxypropylcellulose) (HPC)) was 94 % of control.
Regarding `CN(C)c1ccc(SC(=S)NCc2ccccc2)cc1`, the T/C under setting [10] was 88 % of control and the T/C under setting [11] was 88 % of control.
As to `Clc1c(Cl)c(Cl)c(SC2C3CC4C(C3)C42)c(Cl)c1Cl` (stereo unspecified), the T/C is 103 % of control under setting [6]; 108 % of control under setting [7]; 101 % of control (dose: 200.0 mg/kg/injection, schedule: Q01DX009 (ip), vehicle: saline).
With `CCCCC(=O)CCCCCCCCC(=O)OCC`, the T/C is, setting by setting: (dose: 100.0 mg/kg/injection, schedule: Q04DX003 (ip), vehicle: Klucel (hydroxypropylcellulose) (HPC)) 102 % of control; (dose: 200.0 mg/kg/injection, schedule: Q04DX003 (ip), vehicle: Klucel (hydroxypropylcellulose) (HPC)) 103 % of control; (dose: 400.0 mg/kg/injection, schedule: Q04DX003 (ip), vehicle: Klucel (hydroxypropylcellulose) (HPC)) 95 % of control.
For the molecule `COC(=O)C1c2ccccc2CC(=O)N1N` (stereo unspecified), the T/C runs as follows: (dose: 6.25 mg/kg/injection, schedule: Q01DX009 (ip), vehicle: Klucel (hydroxypropylcellulose) (HPC)) 102 % of control; (dose: 12.5 mg/kg/injection, schedule: Q01DX009 (ip), vehicle: Klucel (hydroxypropylcellulose) (HPC)) 100 % of control; (dose: 25.0 mg/kg/injection, schedule: Q01DX009 (ip), vehicle: Klucel (hydroxypropylcellulose) (HPC)) 100 % of control.
`CSC(=S)n1nc(C)c(N=Nc2ccc(F)cc2)c1C`: the T/C is 92 % of control (dose: 100.0 mg/kg/injection, schedule: Q01DX001 (ip), vehicle: saline with Tween-80); 92 % of control (dose: 200.0 mg/kg/injection, schedule: Q01DX001 (ip), vehicle: saline with Tween-80); 97 % of control (dose: 400.0 mg/kg/injection, schedule: Q01DX001 (ip), vehicle: saline with Tween-80).
